Measurements taken from PMC11507974, “Phytochemical Analysis, Antioxidant Activity and Bioassay-Guided Isolation of Acetylcholinesterase and Butyrylcholinesterase Inhibitors from Horsfieldia polyspherula Bark (Myristicaceae)” (Tropical Life Sciences Research, 2024).
Where two headings read alike, the source gives them in different places.

Columns and labels:
DPPH radical scavenging = details: 15 min incubation, 517 nm
Experimental: The free radical scavenging activity of the samples was determined using 1,1-diphenyl-2 picrylhydrazyl (DPPH) assay as described with minor modification ([Chua et al. 2013]). The DPPH solution was prepared by dissolving 3.0 mg of DPPH in 150 mL of methanol to afford 20 μg/mL. A 750 μL of the sample’s solution at different concentrations, ranging from 1.25 mg/mL to 40 mg/mL was added to 1,500 μL of DPPH solution. The absorbance was recorded at 517 nm using Shimadzu UV-2600 UV-Vis spectrophotometer after 15 min of incubation at room temperature. Ascorbic acid was used as the positive control, while methanol was used as negative control for scanning the background. The ability to scavenge the DPPH was calculated using Equation 2:
(2) DPPH radical scavenging activity (%)=Abs control-Abs sample/Abs control×100
where Abs control is the absorbance of DPPH while Abs sample is the absorbance of the sample. […] All experiments were performed in triplicates.

BuChE from equine serum = target: T1, BuChE from equine serum (Equus caballus, UniProt P81908); test: biochemical; format: biochemical; details: for SI (selectivity index for BuChE): IC50 (AChE)/ IC50 (BuChE)
T1 construct: BuChE from equine serum lyophilized powder (C7512-1.2KU); purchased Sigma Aldrich, Germany C7512-1.2KU; host or cells: equine serum
T1 sequence (P81908 whole entry): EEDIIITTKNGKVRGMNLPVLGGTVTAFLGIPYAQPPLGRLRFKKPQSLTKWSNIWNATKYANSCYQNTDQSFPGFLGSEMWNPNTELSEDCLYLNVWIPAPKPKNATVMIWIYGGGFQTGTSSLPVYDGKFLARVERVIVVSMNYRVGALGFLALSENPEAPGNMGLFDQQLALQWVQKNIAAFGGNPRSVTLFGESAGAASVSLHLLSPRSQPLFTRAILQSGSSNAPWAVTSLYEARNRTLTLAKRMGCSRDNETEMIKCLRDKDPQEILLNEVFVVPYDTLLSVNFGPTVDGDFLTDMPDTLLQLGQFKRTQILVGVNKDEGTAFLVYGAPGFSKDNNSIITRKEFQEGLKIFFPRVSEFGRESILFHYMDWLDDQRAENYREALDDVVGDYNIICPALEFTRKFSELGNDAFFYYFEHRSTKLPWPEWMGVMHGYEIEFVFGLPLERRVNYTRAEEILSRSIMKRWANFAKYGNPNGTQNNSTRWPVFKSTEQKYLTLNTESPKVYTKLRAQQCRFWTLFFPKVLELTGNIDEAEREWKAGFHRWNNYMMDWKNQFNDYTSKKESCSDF
Experimental: (§1) To assess the inhibitory activity of H. polyspherula extract, fractions and isolated compounds towards AChE and BuChE, Ellman’s spectrophotometric method was followed ([Ellman et al. 1961]) using purified AChE from Electrophorus electricus (electric eel) Type V-S (C2888-1K), and BuChE from equine serum lyophilized powder (C7512-1.2KU) all from Sigma Aldrich, Germany. The reaction took place in a final volume of 200 μL of a (140 μL to 160 μL) 100 mM phosphate-buffered solution at pH 7.5 for AChE and 8.0 for BuChE, containing (20 μL) 0.2 U of AChE or 0.1 U of BuChE. Inhibition curves were made by pre-incubating this mixture with six concentrations of each sample (20 μL) for 15 min. A sample with no compound (blank) was present to determine the 100% of enzyme activity. After the pre-incubation period, ten microlitre (10 μL) of 10 mM of 5,5′-dithiobis-2-nitrobenzoic acid (DTNB, D8130 Sigma Aldrich, Germany) was added prior to 14 mM (10 μL) acetylthiocholine iodide (A5751) or 14 Mm butyrylthiocholine iodide (B3253-5G) source from Sigma Aldrich, Germany) were added, DTNB produces yellow anion 5-thio-2-nitrobenzoic acid along with the enzymatic degradation of ATChI or BuTChI. Changes in absorbance were detected at 412 nm in a 96 well spectrophotometric microplate reader (Bostch Biotek) after 30 min. […] Data are analysed using excel, graph pad prism 9.0.0 and expressed as means ± SD of at least three different experiments in triplicate.
(§2) (3) % inhibition=[…]/Abs (blank)×100

[1] = target: T2, AChE from Electrophorus electricus (electric eel) Type V-S (Electrophorus electricus, UniProt O42275); test: biochemical; format: biochemical; details: for SI (selectivity index for AChE): IC50 (BuChE)/ IC50 (AChE)
T2 construct: purified AChE from Electrophorus electricus (electric eel) Type V-S (C2888-1K); purchased Sigma Aldrich, Germany C2888-1K
T2 sequence (O42275 24-633): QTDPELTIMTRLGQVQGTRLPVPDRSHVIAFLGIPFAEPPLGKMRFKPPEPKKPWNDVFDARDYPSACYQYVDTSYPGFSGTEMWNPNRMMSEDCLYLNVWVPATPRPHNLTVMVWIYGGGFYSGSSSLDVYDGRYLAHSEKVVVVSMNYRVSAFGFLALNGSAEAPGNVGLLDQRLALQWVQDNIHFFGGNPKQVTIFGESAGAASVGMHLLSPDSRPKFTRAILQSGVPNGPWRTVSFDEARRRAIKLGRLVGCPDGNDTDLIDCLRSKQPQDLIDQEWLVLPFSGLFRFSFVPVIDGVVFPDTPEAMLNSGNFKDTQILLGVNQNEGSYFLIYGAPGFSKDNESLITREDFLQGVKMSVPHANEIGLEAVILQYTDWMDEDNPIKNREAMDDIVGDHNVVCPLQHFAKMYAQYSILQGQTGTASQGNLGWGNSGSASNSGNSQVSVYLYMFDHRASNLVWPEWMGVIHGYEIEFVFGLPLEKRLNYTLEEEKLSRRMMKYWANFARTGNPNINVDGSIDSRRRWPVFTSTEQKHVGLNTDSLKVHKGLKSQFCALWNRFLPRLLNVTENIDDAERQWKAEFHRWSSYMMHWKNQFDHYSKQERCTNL
Experimental: as §1, §2

[2] = IC50 BuChE, pure compounds (μM for the pure compound)
[3] = IC50 AChE, pure compounds (μM for the pure compound)
[4] = pure compounds (μM for the pure compound)

| SMILES | IC50 of DPPH free radical scavenging activity (DPPH radical scavenging) [µg/mL] | SI (selectivity index for BuChE) (BuChE from equine serum) | SI (selectivity index for AChE) [1] | IC50 (BuChE from equine serum; [2]) [µM] | IC50 [1, 3] [µM] | further results |
| --- | --- | --- | --- | --- | --- | --- |
| O=C1O[C@H]([C@@H](O)CO)C(O)=C1O [Ascorbic acid, reference compound] | 4.21 ± 0.13 |  |  |  |  |  |
| O=C(O)CCCCCCCCCCCCCCCc1ccccc1 [Compound 1, 16-phenylhexadecanoic acid] |  | 1.14 | 0.88 |  |  | IC50 (BuChE from equine serum; pure compounds (μM for the pure compound), read-out: IC50 BuChE): 41 ± 1.99 µM; IC50 ([1]; pure compounds (μM for the pure compound), read-out: IC50 AChE): 46.8 ± 2.44 µM |
| CCCCCCCCCCCc1ccccc1 [Compound 2, Undecylbenzene] |  | 1.05 | 0.95 | 234 ± 4.78 | 246.1 ± 1.4 |  |
| O=C(O)c1ccc(O)c(O)c1 [Compound 3, 3,4-dihydroxybenzoic acid] | 6.56 ± 0.02 | 1.41 | 0.71 | 232 ± 8.37 | 327 ± 6.83 |  |
| CCCCCCCCCCCCCC(=O)OCC(COC(=O)CCCCCCCCCCCCC)OC(=O)CCCCCCCCCCCCC [Compound 9, Trimyristin] |  |  |  |  |  | IC50 BuChE (BuChE from equine serum; [4]): no inhibitory activities; IC50 AChE [1, 4]: no inhibitory activities |
| CNC(=O)Oc1ccc2c(c1)[C@]1(C)CCN(C)[C@@H]1N2C [Eserine, reference compound] |  |  |  |  |  | % inhibition BuChE (BuChE from equine serum; control, tested at 0.2 μM): 44.45 ± 0.23% |
